Assays:
B. subtilis 168 [1] = assay: fitness (endpoint OD595 vs no drug) (fraction); higher = more growth
In short: (§1)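 Growth medium was TSB, LB Lennox or CY, and plates were kept at 37 °C. Inoculation was at OD595 0.01 in 384-well plates, at 30 µl per well or 55 µl for S. pneumoniae. OD595 was monitored every 30 min for 14 h and background-subtracted using the first reading. Fitness is the optical density on entering stationary phase divided by the robust mean of no-drug controls, with values capped at 1.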

S. pneumoniae D39V [2] = assay: as above
In short: as §1

S. aureus Newman = assay: Bliss interaction score (quartile over a dose matrix) (fitness difference); higher = more antagonism (negative = synergy)
In short: (§2)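 The Bliss score is observed minus expected fitness, where expected fitness is the product of the single-drug fitness values inferred from the combination data. Fitness is the OD595 at the onset of stationary phase over the plate's robust no-drug mean, capped at 1. Scores are summarised by quartiles over technical, biological and donor/recipient replicates.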

B. subtilis 168 [3] = assay: as above
In short: as §2

S. aureus DSM 20231 = assay: as above
In short: as §2

S. pneumoniae D39V [4] = assay: as above
In short: as §2
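Wherever Bliss interaction score (quartile over a dose matrix) is given: first quartile when negative (synergy) and third quartile when positive (antagonism).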
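Wherever fitness (endpoint OD595 vs no drug) is given: OD595 on entry to stationary phase over no-drug wells; at most 1.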

O=C(O)c1cn(C2CC2)c2cc(N3CCNCC3)c(F)cc2c1=O [Ciprofloxacin] + C[C@H]1c2cccc(O)c2C(=O)C2=C(O)[C@]3(O)C(=O)C(C(N)=O)=C(O)[C@@H](N(C)C)[C@@H]3[C@@H](O)[C@@H]21 [Doxycycline]
fitness
Settings | partner 0.0155 µg/mL | partner 0.02 µg/mL | partner 0.031 µg/mL | partner 0.04 µg/mL | partner 0.08 µg/mL
B. subtilis 168 [1], first compound 0.0098 µg/mL | – | 0.879 | – | 0.813 | 0.677
B. subtilis 168 [1], first compound 0.0195 µg/mL | – | 0.726 | – | 0.688 | 0.58
S. pneumoniae D39V [2], first compound 0.125 µg/mL | 0.891 | – | 0.742 | – | –
S. pneumoniae D39V [2], first compound 0.25 µg/mL | 0.892 | – | 0.703 | – | –

fitness, S. pneumoniae D39V [2], one replicate
Settings | first compound 0.125 µg/mL | first compound 0.25 µg/mL | first compound 0.5 µg/mL
partner 0.003875 µg/mL | ≥ 1 | 0.931 | 0.804
partner 0.00775 µg/mL | 0.967 | 0.913 | 0.825

Settings | Bliss interaction score
B. subtilis 168 [3] | 0.183
S. aureus DSM 20231 | 0.0661
S. aureus Newman | 0.0631
S. pneumoniae D39V [4] | 0.0673

COc1cccc2c1C(=O)c1c(O)c3c(c(O)c1C2=O)C[C@@](O)(C(=O)CO)C[C@@H]3O[C@H]1C[C@H](N)[C@H](O)[C@H](C)O1 [Doxorubicin] + CCC(C)C1C(=O)NC(=C)C(=O)NC(C(=O)NC(CSCC(C(=O)N1)NC(=O)/C(=C/C)/NC(=O)C(C(C)CC)N)C(=O)NC2C(SCC(NC(=O)CNC(=O)C3CCCN3C2=O)C(=O)NC(CCCCN)C(=O)NC4C(SCC(NC(=O)CNC(=O)C(NC(=O)C(NC(=O)C(NC(=O)CNC4=O)C)CC(C)C)CCSC)C(=O)NC(CC(=O)N)C(=O)NC(CCSC)C(=O)NC(CCCCN)C(=O)NC5C(SCC6C(=O)NC(C(=O)NC(CSC(C(C(=O)N6)NC(=O)C(NC5=O)C)C)C(=O)NC(CO)C(=O)NC(C(C)CC)C(=O)NC(CC7=CN=CN7)C(=O)NC(C(C)C)C(=O)NC(=C)C(=O)NC(CCCCN)C(=O)O)CC8=CN=CN8)C)C)C)CC(C)C [Nisin]
main component drawn
Settings | fitness
B. subtilis 168 [1], first compound 0.625 µg/mL, partner 0.5 µg/mL | 0.882
B. subtilis 168 [1], first compound 0.625 µg/mL, partner 1 µg/mL | 0.852
B. subtilis 168 [1], first compound 0.625 µg/mL, partner 2 µg/mL | 0.459
B. subtilis 168 [1], first compound 1.25 µg/mL, partner 0.5 µg/mL | 0.821
B. subtilis 168 [1], first compound 1.25 µg/mL, partner 1 µg/mL | 0.83
B. subtilis 168 [1], first compound 1.25 µg/mL, partner 2 µg/mL | 0.567
B. subtilis 168 [1], first compound 2.5 µg/mL, partner 0.5 µg/mL | 0.688
B. subtilis 168 [1], first compound 2.5 µg/mL, partner 1 µg/mL | 0.603
B. subtilis 168 [1], first compound 2.5 µg/mL, partner 2 µg/mL | 0.19
S. pneumoniae D39V [2], first compound 0.25 µg/mL, partner 0.4275 µg/mL | 0.998
S. pneumoniae D39V [2], first compound 0.25 µg/mL, partner 0.855 µg/mL | 0.991
S. pneumoniae D39V [2], first compound 0.25 µg/mL, partner 1.6 µg/mL | 0.0164
S. pneumoniae D39V [2], first compound 0.25 µg/mL, partner 1.71 µg/mL | 0.0746
S. pneumoniae D39V [2], first compound 0.25 µg/mL, partner 3.2 µg/mL | 0.0268
S. pneumoniae D39V [2], first compound 0.25 µg/mL, partner 6.4 µg/mL | 0.0249
S. pneumoniae D39V [2], first compound 0.5 µg/mL, partner 0.4275 µg/mL | 0.977
S. pneumoniae D39V [2], first compound 0.5 µg/mL, partner 0.855 µg/mL | 0.91
S. pneumoniae D39V [2], first compound 0.5 µg/mL, partner 1.6 µg/mL | 0.0215
S. pneumoniae D39V [2], first compound 0.5 µg/mL, partner 1.71 µg/mL | 0.0797
S. pneumoniae D39V [2], first compound 0.5 µg/mL, partner 3.2 µg/mL | 0.0424
S. pneumoniae D39V [2], first compound 0.5 µg/mL, partner 6.4 µg/mL | 0.039
S. pneumoniae D39V [2], first compound 1 µg/mL, partner 0.4275 µg/mL | 0.844
S. pneumoniae D39V [2], first compound 1 µg/mL, partner 1.6 µg/mL | 0.0081
S. pneumoniae D39V [2], first compound 1 µg/mL, partner 1.71 µg/mL | 0.065
S. pneumoniae D39V [2], first compound 1 µg/mL, partner 3.2 µg/mL | 0.0126
S. pneumoniae D39V [2], first compound 1 µg/mL, partner 6.4 µg/mL | 0.0281

fitness, B. subtilis 168 [1], one replicate, main component drawn
Settings | partner 1.25 µg/mL | partner 1.6 µg/mL | partner 2.5 µg/mL | partner 3.2 µg/mL | partner 4 µg/mL | partner 5 µg/mL | partner 6.4 µg/mL | partner 8 µg/mL | partner 16 µg/mL
first compound 0.625 µg/mL | ≥ 1 | 0.646 | 0.612 | 0.0265 | 0.0271 | 0.0205 | 0.0251 | 0.0074 | 0.0185
first compound 1.25 µg/mL | 0.996 | 0.742 | 0.659 | 0.0085 | 0.0489 | 0.0315 | 0.0249 | 0.0463 | 0.0265
first compound 2.5 µg/mL | 0.888 | 0.178 | 0.451 | 0.0274 | 0.0327 | 0.0219 | 0.0137 | 0.0311 | 0.0578

main component drawn
Settings | Bliss interaction score
B. subtilis 168 [3] | 0.0614
S. aureus DSM 20231 | 0.0625
S. aureus Newman | -0.0646
S. pneumoniae D39V [4] | -0.0536

COc1cccc2c1C(=O)c1c(O)c3c(c(O)c1C2=O)C[C@@](O)(C(=O)CO)C[C@@H]3O[C@H]1C[C@H](N)[C@H](O)[C@H](C)O1 [Doxorubicin] + CN(C)C(=O)C(CCN1CCC(O)(c2ccc(Cl)cc2)CC1)(c1ccccc1)c1ccccc1 [Loperamide]
Settings | fitness
B. subtilis 168 [1], first compound 0.625 µg/mL, partner 50 µg/mL | 0.0285
B. subtilis 168 [1], first compound 0.625 µg/mL, partner 100 µg/mL | 0.0284
B. subtilis 168 [1], first compound 1.25 µg/mL, partner 50 µg/mL | 0.0281
B. subtilis 168 [1], first compound 1.25 µg/mL, partner 100 µg/mL | 0.0427
B. subtilis 168 [1], first compound 2.5 µg/mL, partner 25 µg/mL | 0.0131
B. subtilis 168 [1], first compound 2.5 µg/mL, partner 50 µg/mL | 0.0232
B. subtilis 168 [1], first compound 2.5 µg/mL, partner 100 µg/mL | 0.019
S. pneumoniae D39V [2], first compound 0.25 µg/mL, partner 17.14 µg/mL | 0.905
S. pneumoniae D39V [2], first compound 0.25 µg/mL, partner 20 µg/mL | ≥ 1
S. pneumoniae D39V [2], first compound 0.25 µg/mL, partner 34.28 µg/mL | 0.884
S. pneumoniae D39V [2], first compound 0.25 µg/mL, partner 40 µg/mL | ≥ 1
S. pneumoniae D39V [2], first compound 0.5 µg/mL, partner 17.14 µg/mL | 0.915
S. pneumoniae D39V [2], first compound 0.5 µg/mL, partner 20 µg/mL | ≥ 1
S. pneumoniae D39V [2], first compound 0.5 µg/mL, partner 34.28 µg/mL | 0.899
S. pneumoniae D39V [2], first compound 0.5 µg/mL, partner 40 µg/mL | ≥ 1
S. pneumoniae D39V [2], first compound 1 µg/mL, partner 17.14 µg/mL | 0.912
S. pneumoniae D39V [2], first compound 1 µg/mL, partner 20 µg/mL | 0.991
S. pneumoniae D39V [2], first compound 1 µg/mL, partner 34.28 µg/mL | 0.902
S. pneumoniae D39V [2], first compound 1 µg/mL, partner 40 µg/mL | 0.967

S. pneumoniae D39V [2], partner 68.57 µg/mL, one replicate
Settings | fitness
first compound 0.25 µg/mL | 0.87
first compound 0.5 µg/mL | 0.872
first compound 1 µg/mL | 0.929

Settings | Bliss interaction score
B. subtilis 168 [3] | -0.228
S. aureus DSM 20231 | -0.0983
S. aureus Newman | -0.0664
S. pneumoniae D39V [4] | 0.0787

COc1cccc2c1C(=O)c1c(O)c3c(c(O)c1C2=O)C[C@@](O)(C(=O)CO)C[C@@H]3O[C@H]1C[C@H](N)[C@H](O)[C@H](C)O1 [Doxorubicin] + C[C@H]1COc2c(N3CCN(C)CC3)c(F)cc3c(=O)c(C(=O)O)cn1c23 [Levofloxacin]
fitness, B. subtilis 168 [1], one replicate
Settings | first compound 0.625 µg/mL | first compound 1.25 µg/mL | first compound 2.5 µg/mL
partner 0.001 µg/mL | ≥ 1 | 0.98 | 0.943
partner 0.0078 µg/mL | 0.888 | 0.894 | 0.567

Settings | fitness
B. subtilis 168 [1], first compound 0.625 µg/mL, partner 0.002 µg/mL | 0.93
B. subtilis 168 [1], first compound 0.625 µg/mL, partner 0.0039 µg/mL | 0.927
B. subtilis 168 [1], first compound 0.625 µg/mL, partner 0.0312 µg/mL | 0.0411
B. subtilis 168 [1], first compound 0.625 µg/mL, partner 0.0625 µg/mL | 0.0463
B. subtilis 168 [1], first compound 0.625 µg/mL, partner 0.125 µg/mL | 0.0495
B. subtilis 168 [1], first compound 1.25 µg/mL, partner 0.002 µg/mL | 0.901
B. subtilis 168 [1], first compound 1.25 µg/mL, partner 0.0039 µg/mL | 0.873
B. subtilis 168 [1], first compound 1.25 µg/mL, partner 0.0312 µg/mL | 0.0455
B. subtilis 168 [1], first compound 1.25 µg/mL, partner 0.0625 µg/mL | 0.0566
B. subtilis 168 [1], first compound 1.25 µg/mL, partner 0.125 µg/mL | 0.0562
B. subtilis 168 [1], first compound 2.5 µg/mL, partner 0.002 µg/mL | 0.791
B. subtilis 168 [1], first compound 2.5 µg/mL, partner 0.0039 µg/mL | 0.73
B. subtilis 168 [1], first compound 2.5 µg/mL, partner 0.0312 µg/mL | 0.031
B. subtilis 168 [1], first compound 2.5 µg/mL, partner 0.0625 µg/mL | 0.0389
B. subtilis 168 [1], first compound 2.5 µg/mL, partner 0.125 µg/mL | 0.0379
S. pneumoniae D39V [2], first compound 0.25 µg/mL, partner 0.1725 µg/mL | 0.853
S. pneumoniae D39V [2], first compound 0.25 µg/mL, partner 0.2 µg/mL | 0.904
S. pneumoniae D39V [2], first compound 0.25 µg/mL, partner 0.345 µg/mL | 0.776
S. pneumoniae D39V [2], first compound 0.25 µg/mL, partner 0.4 µg/mL | 0.834
S. pneumoniae D39V [2], first compound 0.25 µg/mL, partner 0.69 µg/mL | 0.509
S. pneumoniae D39V [2], first compound 0.5 µg/mL, partner 0.1725 µg/mL | 0.941
S. pneumoniae D39V [2], first compound 0.5 µg/mL, partner 0.2 µg/mL | 0.942
S. pneumoniae D39V [2], first compound 0.5 µg/mL, partner 0.345 µg/mL | 0.871
S. pneumoniae D39V [2], first compound 0.5 µg/mL, partner 0.4 µg/mL | 0.831
S. pneumoniae D39V [2], first compound 0.5 µg/mL, partner 0.69 µg/mL | 0.571
S. pneumoniae D39V [2], first compound 1 µg/mL, partner 0.1725 µg/mL | 0.875
S. pneumoniae D39V [2], first compound 1 µg/mL, partner 0.2 µg/mL | 0.854
S. pneumoniae D39V [2], first compound 1 µg/mL, partner 0.345 µg/mL | 0.798
S. pneumoniae D39V [2], first compound 1 µg/mL, partner 0.4 µg/mL | 0.736
S. pneumoniae D39V [2], first compound 1 µg/mL, partner 0.69 µg/mL | 0.548
S. pneumoniae D39V [2], first compound 1 µg/mL, partner 0.8 µg/mL | 0.342

Settings | Bliss interaction score
B. subtilis 168 [3] | 0.0423
S. aureus DSM 20231 | 0.0678
S. aureus Newman | 0.133
S. pneumoniae D39V [4] | -0.0424

Reference: the supplement of paper PMC10627819
